Measured values from PMC8712301, “Novel CYP11B-ligand [^123/131I]IMAZA as promising theranostic tool for adrenocortical tumors: comprehensive preclinical characterization and first clinical experience” (European Journal of Nuclear Medicine and Molecular Imaging, 2021).
Read-outs that look alike come from different tables or passages of the source.

Columns and labels:
[1] = Metabolic inactivation by human liver microsomes in vitro (radio-HPLC); assay type: in vitro ADME; details: for half-life at 0.17 MBq/ml: human, pH 7.2, 125I-labeled compound, liver microsomes 0.2 mg/ml, NADPH, 37 °C, mean ± S.D., read-out: In vitro T1/2 in human liver microsomes; for Metabolic stability compared with [125I]IMTO: radio-HPLC
Method: Metabolic degradation was determined by co-incubation of the tracers with human liver microsomes (Sigma, M0317). Experiments were conducted in triplicates. Incubation mixtures consisted of liver microsomes (0.2 mg/ml), the respective ^125I-labeled compound (0.1 MBq), MgCl2 (3.3 mM), and NADPH (1.3 mM) in a total volume of 0.6 ml K3PO4 puffer (25 mM, pH 7.2). The reaction was started with the addition of NADPH and incubated at 37 °C. At predefined time points, aliquots were removed, and the reaction was terminated by adding 160 µL ice-cold methanol. After centrifugation (5000 × g, 4 °C for 4 min), the supernatant was analyzed by radio-HPLC (see experimental details and Supplementary Fig. 1 in Supplement).

human CYP11B2 = biological target: T1, human CYP11B2 (Homo sapiens, UniProt P19099); experiment: Inhibition of CYP11B2 in stably transfected Y1-hsCyp11B2 cells; assay type: cell-based
T1 construct: expressed in transfected cells; host or cells: murine adrenocortical cancer cell line Y1 (Y1-hsCyp11B2, stably transfected)
T1 sequence (P19099 25-503): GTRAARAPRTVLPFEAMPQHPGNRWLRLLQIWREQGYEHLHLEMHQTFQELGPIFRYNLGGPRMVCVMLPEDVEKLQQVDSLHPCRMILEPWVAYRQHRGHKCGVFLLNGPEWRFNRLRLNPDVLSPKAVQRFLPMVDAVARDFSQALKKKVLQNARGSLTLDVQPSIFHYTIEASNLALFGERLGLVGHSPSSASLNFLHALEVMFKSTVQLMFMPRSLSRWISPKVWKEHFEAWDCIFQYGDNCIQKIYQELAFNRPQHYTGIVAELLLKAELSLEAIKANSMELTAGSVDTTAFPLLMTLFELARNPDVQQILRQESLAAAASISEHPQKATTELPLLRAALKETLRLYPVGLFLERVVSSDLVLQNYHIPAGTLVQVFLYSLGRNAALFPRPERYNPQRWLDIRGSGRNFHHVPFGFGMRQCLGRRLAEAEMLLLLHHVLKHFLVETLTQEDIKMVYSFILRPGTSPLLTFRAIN
Method: (§1) The human adrenocortical cell line NCI-H295 and the murine adrenocortical cancer cell line Y1 transfected with either human CYP11B1 or CYP11B2 were used for determination of IC50 values as already described.
(§2) IC50 values were calculated from all values using the program GraphPad Prism5®. All results are expressed as mean ± standard deviation.

human CYP11B1 = biological target: T2, human CYP11B1 (Homo sapiens, UniProt P15538); experiment: Inhibition of CYP11B1 in stably transfected Y1-hsCyp11B1 cells; assay type: cell-based
T2 construct: expressed in transfected cells; host or cells: murine adrenocortical cancer cell line Y1 (Y1-hsCyp11B1, stably transfected)
T2 sequence (P15538 25-503): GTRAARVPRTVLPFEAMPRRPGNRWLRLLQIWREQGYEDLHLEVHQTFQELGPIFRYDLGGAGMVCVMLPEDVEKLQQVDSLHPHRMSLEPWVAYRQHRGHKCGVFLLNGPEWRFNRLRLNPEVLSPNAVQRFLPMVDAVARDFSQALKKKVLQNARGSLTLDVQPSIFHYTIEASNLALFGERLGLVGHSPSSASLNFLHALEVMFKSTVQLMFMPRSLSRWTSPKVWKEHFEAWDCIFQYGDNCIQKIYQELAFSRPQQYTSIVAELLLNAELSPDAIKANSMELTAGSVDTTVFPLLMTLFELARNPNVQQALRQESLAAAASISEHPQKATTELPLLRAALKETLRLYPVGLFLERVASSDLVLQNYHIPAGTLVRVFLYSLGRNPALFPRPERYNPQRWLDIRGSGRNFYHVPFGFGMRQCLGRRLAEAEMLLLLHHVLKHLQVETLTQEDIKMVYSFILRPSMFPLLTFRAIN
Method: as §1, §2

NCI-H295 cells = experiment: Steroid secretion in NCI-H295 cells after 48-h incubation; assay type: cell-based, human; details: for Production of the investigated hormones: higher concentrations; for Upstream steroids 17-OH-progesterone and androstenedione: lower concentrations 0.1-10 nM
Method: as §1
Fig. 2 Steroid secretion in NCI-H295 cells after 48-h incubation with IMTO, IMAZA, 3-tetrahydrofurylester, and 2,2-difluoroethylester (0.1–10,000 nM). NCI-H295 cells were incubated for 48 h with the four compounds. Each experiment was performed in triplicates. At the end of the incubation period, steroid hormones (cortisol, aldosterone, 17-OH-P, and androstenedione) were determined in the cell supernatant by commercially available assays

[2] = Lipophilicity estimated from HPLC retention times
advanced ACC [3] = experiment: Diagnostic imaging and biokinetics with [123I]IMTO and [123I]IMAZA in patients with advanced ACC; assay type: in vivo, human; details: kinetics recalculated for 131I from 123I diagnostics in patients
Method: Three patients (#1, #2, and #3) were investigated by [^123I]IMAZA (administered doses, 117, 163, and 182 MBq, respectively) and subsequently by [^123I]IMTO (176, 169, and 146 MBq, respectively). The time interval between the imaging studies was at least 5 days. Scintigraphic imaging was performed using a Siemens Symbia dual-head gamma camera equipped with medium-energy parallel-hole collimators. Activity concentration was measured in whole blood samples drawn at 2 min, 5 min, 15 min, 1 h, 2.5 h, 5 h, and 23 h after the administration. Plasma activity was analyzed in patient #1.

metastatic ACC [4] = experiment: Dosimetry and endoradiotherapy with [131I]IMAZA in a patient with metastatic ACC; assay type: in vivo, human; details: patient #1, derived from diagnostics with [123I]IMTO
Excerpt: Patient #1 had experienced disease progression with a more than fourfold increase in their dominant lesions within only 4 months after a phase of disease stabilization after standard treatment with mitotane and eight courses of combination chemotherapy with etoposide, doxorubicin, and cisplatin. They received therapeutic doses with 28.2 GBq [^131I]IMAZA 1 month and with 30.5 GBq [^131I]IMAZA 7 months after the evaluation with [^123I]IMAZA. Prior to the first treatment, the absorbed dose to the blood was measured with a tracer activity of 72 MBq [^131I]IMAZA as a surrogate for the exposure of the dose-limiting organ, the red bone marrow. The absorbed dose to the blood was estimated from assessments of the activity kinetics in total body and blood up to 48 h when the mean activity concentrations had dropped to 5% of the values at 5 min after the administration in the total body and to 1% in the blood. During therapy, the total body activity retention was measured with a survey meter in the ceiling over the patient’s bed. Gamma camera whole body scans accompanied by blood sampling were acquired starting 4 days post-administration after the first and 2 days after the second therapy until dismissal. SPECT/CT imaging was performed after 4 and 5 days, respectively.
Tumor evaluation was performed by [^18F]FDG PET/CT at baseline and 2, 5, 8, 11, 14, and 21 months after administration of the first treatment dose. Subsequently, the patient declined further follow-up imaging or additional therapeutic interventions.

metastatic ACC [5] = experiment: as above; assay type: in vivo, human; details: patient #1, derived from diagnostics with [123I]IMTO; remark: listed apart in the source
advanced ACC [6] = system: advanced ACC; set-up: method as in PMID 15898346, PMID 29452402; details: advanced ACC ref 10, 11; cited from earlier work

SMILES: COC(=O)c1cncn1[C@H](C)c1ccc(I)cc1 [Compound 1, (R)-1-[1-(4-Iodophenyl)ethyl]-1H-imidazole-5-carboxylic acid methyl ester]
- half-life at 0.17 MBq/ml ([1]; human liver microsomes): 7.3 ± 3.6 min
- melting point: 72 to 74 °C

SMILES: C[C@H](c1ccc(I)cc1)n1cncc1C(=O)O [Compound 2, (R)-1-[1-(4-Iodophenyl)ethyl]-1H-imidazole-5-carboxylic acid]
- IC50 (human CYP11B2): 611 ± 1040 nM
- melting point: > 250 °C (dec.)

SMILES: C[C@H](c1ccc(I)cc1)n1cncc1C(=O)OC1CCOC1 (stereo partly drawn) [Compound 3, (R)-1-[1-(4-Iodophenyl)ethyl]-1H-imidazole-5-carboxylic acid 3-tetrahydrofurylester]
- IC50 (human CYP11B1): 5.3 ± 5.9 nM
- IC50 (human CYP11B2): 2.9 ± 1.6 nM
- Metabolic stability compared with [125I]IMTO ([1]; human liver microsomes): nearly equal or even better metabolic stability
- half-life at 0.17 MBq/ml [1]: 7.4 ± 2.8 min
- Production of the investigated hormones (NCI-H295 cells): completely stopped
- Upstream steroids 17-OH-progesterone and androstenedione (NCI-H295 cells): accumulation of the upstream steroids 17-OH-progesterone and androstenedione was observed
- Lipophilicity compared with IMTO [2]: comparable

SMILES: C[C@H](c1ccc(I)cc1)n1cncc1C(=O)OCC(F)F [Compound 4, (R)-1-[1-(4-Iodophenyl)ethyl]-1H-imidazole-5-carboxylic acid 2,2-difluoroethylester]
- IC50 (human CYP11B1): 0.3 ± 0.4 nM
- IC50 (human CYP11B2): 4.5 ± 0.5 nM
- Metabolic stability compared with [125I]IMTO ([1]; human liver microsomes): nearly equal or even better metabolic stability
- half-life at 0.17 MBq/ml [1]: 7.5 ± 0.87 min
- Production of the investigated hormones (NCI-H295 cells): completely stopped
- Upstream steroids 17-OH-progesterone and androstenedione (NCI-H295 cells): accumulation of the upstream steroids 17-OH-progesterone and androstenedione was observed
- Lipophilicity compared with IMTO [2]: comparable

SMILES: C[C@H](c1ccc(I)cc1)n1cncc1C(=O)N1CCC1 [Compound 5, (R)-1-[1-(4-Iodophenyl)ethyl]-1H-imidazole-5-carboxylic acid azetidinylamide]
- IC50 (human CYP11B1; stably transfected Y1-hsCyp11B1 cells, substrate deoxycortisol (1 µM), mean of at least three experiments in duplicates, read-out: IC50 CYP11B1): 3.2 ± 0.1 nM
- IC50 (human CYP11B2; stably transfected Y1-hsCyp11B2 cells, substrate 11-deoxycorticosterone (1 µM), mean of at least three experiments in duplicates, read-out: IC50 CYP11B2): 1.2 ± 0.1 nM
- half-life at 0.17 MBq/ml ([1]; human liver microsomes): 26.1 ± 5.5 min
- Production of the investigated hormones (NCI-H295 cells): completely stopped
- Upstream steroids 17-OH-progesterone and androstenedione (NCI-H295 cells): accumulation of the upstream steroids 17-OH-progesterone and androstenedione was observed
- Lipophilicity compared with IMTO [2]: lower

SMILES: COC(=O)c1cncn1C(C)c1ccc([131I])cc1 (stereo not shown) [[^131I]IMTO]
- Mean blood absorbed dose (advanced ACC [3]): 0.11 Gy/GBq
- Blood absorbed dose (metastatic ACC [4]): 0.17 Gy/GBq
- Residence time per liter of whole blood (metastatic ACC [5]): 0.55 h

SMILES: Clc1ccc(C(c2ccccc2Cl)C(Cl)Cl)cc1 (stereo not shown) [mitotane]
- Response rate (advanced ACC [6]): ≤ 24%
